{
  "source": "paper PMC11651168",
  "about": "“Effective, but Safe? Physiologically Based Pharmacokinetic (PBPK)-Modeling-Based Dosing Study of Molnupiravir for Risk Assessment in Pediatric Subpopulations” (ACS Pharmacology & Translational Science, 2024)",
  "key": {"[1]": {"conditions": "cited from earlier work"}, "PAMPA permeability assay": {"experiment": "PAMPA permeability assay", "type": "in vitro ADME", "experimental": "For the PAMPA assay, a PAMP-096 kit from BioAssay Systems was used. Theophyllin, chloramphenicol, and diclofenac were used as low, high, and medium permeability controls, respectively. The assay was conducted as described in the manufacturer’s protocol. For all compounds, 10 mg/mL DMSO stocks were used. Compound concentrations were determined using HPLC-MS/MS. For the HPLC-MS measurements, samples were analyzed using an Agilent 1290 Infinity II HPLC system coupled to an AB Sciex QTrap 6500plus as described below. Permeability was determined as follows in eqs 2 and 3.\nEffective permeability (Peff) was calculated using the following formula [drawing 2] 2 [drawing 3] 3 where the PAt is average peak area of the test compound or permeability standard and PAE is the peak area of the equilibrium standard. The value of C was calculated by the following formula, where donor volume (VD) is 0.2 cm^3, acceptor volume (VA) is 0.3 cm^3, membrane area is 0.24 cm^2, and incubation time is 72,360 s.\n(§1) Samples were analyzed using an Agilent 1290 Infinity II HPLC system coupled to an AB Sciex QTrap 6500plus mass spectrometer. LC conditions were as follows: column: Agilent Zorbax Eclipse Plus C18, 50 × 2.1 mm, 1.8 μm; temperature: 30 °C; injection volume: 1 μL per sample; flow rate: 700 μL/min. Samples were collected under the following conditions. Solvents: A: 100% water +0.1% HCOOH; solvent B: 100% ACN +0.1% HCOOH. The gradient was as follows: 99% A at 0 min, 99% A until 1 min, 99–0% A from 1 to 3 min, 99% A until 3.2 min. Mass transitions are depicted in Table S1. Peaks of samples were quantified by using relative quantification. Data analysis was performed by using Multiquant 3.0 software (AB Sciex)."}, "[2]": {"experiment": "Pediatric PBPK model for neonates, infants and children in early childhood (PK-Sim)", "set-up": "species or system human"}, "dogs [3]": {"test_system": "dogs", "conditions": "14 days; cited from earlier work"}, "dogs [4]": {"test_system": "dogs", "experiment": "Preclinical toxicity study in dogs", "conditions": "allometric scaling of 50 mg/kg/day in dogs, scaling factors of ref 38"}, "[5]": {"conditions": "cited from earlier work", "remark": "listed apart in the source"}, "rats [6]": {"test_system": "rats", "experiment": "Preclinical bone and cartilage toxicity in rats", "conditions": "allometric scaling of 500 mg/kg/day in rats, scaling factors of ref 38"}, "Plasma stability assay": {"experiment": "Plasma stability assay", "type": "in vitro ADME", "conditions": "for half-life: plasma", "experimental": "(§2) First, for the construction of the adult molnupiravir-NHC PBPK model, the physicochemical properties were incorporated. Moreover, ADME in vitro assays were performed to allow a better estimation of in vivo PK behavior. In particular, the plasma stability and the metabolic stability assays were used to derive information on the half-life of molnupiravir and the subsequent generation of NHC. […] This information was taken into account during parameter optimization. […] The determination of the log P value yielded information for calculation of the partition coefficients. […] This value was used as a basis for the subsequent parameter optimization. As NHC is further converted to NHC-TP, which is cleared via the endogenous nucleoside pool, renal clearance as well as hepatic clearance, indicated by our in vitro data, is not involved in clearance.\n(§3) The plasma protein binding assay, the plasma stability assay, and the metabolic stability assay were performed as described previously.[30] For all of the assays, NHC and molnupiravir were used. Molnupiravir and NHC were purchased from Merck/Sigma."}, "rats [7]": {"test_system": "rats", "set-up": "method as in earlier work", "conditions": "over three months; cited from earlier work"}, "[8]": {"experiment": "Microsomal metabolic stability assay", "type": "in vitro ADME", "conditions": "microsomes; for microsomal CLint: microsomal metabolic stability (Clint; in vitro)", "experimental": "as §2, §3"}, "[9]": {"experiment": "Plasma protein binding assay", "type": "in vitro ADME", "conditions": "2 h incubation; for fraction unbound at 2 h: plasma", "experimental": "as §2, §3"}, "[10]": {"conditions": "cited from earlier work", "remark": "listed apart in the source"}, "SARS-CoV-2 delta": {"test_system": "SARS-CoV-2 delta", "set-up": "method as in Wen et al., 2023 (36)", "conditions": "ref Wen et al., 2023 (36), read-out: Antiviral activity, EC50; cited from earlier work"}, "SARS-CoV-2 wildtype": {"test_system": "SARS-CoV-2 wildtype", "set-up": "method as in Wen et al., 2023 (36)", "conditions": "ref Wen et al., 2023 (36), read-out: Antiviral activity, EC50; cited from earlier work"}, "SARS-CoV-2 alpha": {"test_system": "SARS-CoV-2 alpha", "set-up": "method as in Wen et al., 2023 (36)", "conditions": "ref Wen et al., 2023 (36), read-out: Antiviral activity, EC50; cited from earlier work"}, "[11]": {"test_system": "SARS-CoV-2 omicron BA.2 lineage", "set-up": "method as in Wen et al., 2023 (36)", "conditions": "ref Wen et al., 2023 (36), read-out: Antiviral activity, EC50; cited from earlier work"}, "[12]": {"experiment": "Experimental determination of log P (octan-1-ol/water)", "type": "physicochemical", "conditions": "data from in vitro studies", "experimental": "The log P experiment was performed for molnupiravir and its metabolite NHC. Octan-1-ol and water were saturated 24 h prior to the start of the experiment. Each compound was added to the octan-1-ol phase at a final concentration of 100 ng/mL. Two setups were used: octan-1-ol/water (1:1) and octan-1-ol/water (1:10). After addition of the compound, each phase was shaken at 2000 rpm for 1 h, and then, phases were separated by centrifugation at 13,000 rpm for 5 min at 4 °C. From each sample, 10 μL of water layer and octanol layer was diluted to 100 μL with DMSO for high-performance liquid chromatography tandem mass spectrometry (HPLC-MS/MS) analysis. The log P was calculated by Formula 1. [drawing 1] 1\nas §1, with “Data analysis was performed by using Multiquant 3.0 software (AB Sciex).” left out"}, "[13]": {"test_system": "SARS-CoV-2 omicron BA.1 lineage", "set-up": "method as in Wen et al., 2023 (36)", "conditions": "ref Wen et al., 2023 (36), read-out: Antiviral activity, EC50; cited from earlier work"}, "SARS-CoV-2 beta": {"test_system": "SARS-CoV-2 beta", "set-up": "method as in Wen et al., 2023 (36)", "conditions": "ref Wen et al., 2023 (36), read-out: Antiviral activity, EC50; cited from earlier work"}},
  "note": "Like-named read-outs stand apart in the source and are kept apart here. Marks after values point to notes of the source that are not given here.",
  "data": [
    {"smiles": "CC(C)C(=O)OC[C@H]1O[C@@H](n2ccc(NO)nc2=O)[C@H](O)[C@@H]1O", "note": "[Molnupiravir]", "values": [
      {"measurement": "decrease in Cmax with food (ratio)", "setting": "[1]; concomitant food consumption", "value": 1.6},
      {"measurement": "effect of food on total exposure (AUC0–∞)", "setting": "[1]; concomitant food consumption", "value": "not impacted"},
      {"measurement": "Tmax", "setting": "[1]; with concomitant food consumption", "value": 3.0, "unit": "h"},
      {"measurement": "Tmax", "setting": "[1]; without food", "value": 1.0, "unit": "h"},
      {"measurement": "permeability (in words)", "setting": "PAMPA permeability assay", "value": "moderate permeability"},
      {"measurement": "permeability (PAMPA)", "setting": "PAMPA permeability assay; 72360 s", "value": "3.1 10^–6 cm/s"},
      {"measurement": "Papp at 72360 s", "setting": "PAMPA permeability assay; data from in vitro studies, read-out: specific intestinal permeability (converted)", "value": 3.1, "unit": "×10⁻⁶ cm/s"},
      {"measurement": "fold higher doses needed in pediatric subpopulations for similar efficacy to adults", "setting": "[2]", "value": "2–3 fold"},
      {"measurement": "dose at which no toxicity was observed", "setting": "dogs [3]", "value": 50, "unit": "mg/kg/day"},
      {"measurement": "human equivalent dose of the nonobserved toxicity dose in dogs", "setting": "dogs [4]", "value": 27, "unit": "mg/kg/day"},
      {"measurement": "pKa", "setting": "[5]; first of three values", "value": 2.2},
      {"measurement": "pKa", "setting": "[5]; second of three printed values", "value": 10.2},
      {"measurement": "pKa", "setting": "[5]; third of three printed values", "value": 12.0},
      {"measurement": "human equivalent dose of the toxicity-associated rat dose", "setting": "rats [6]", "value": "around 80 mg/kg/day"},
      {"measurement": "plasma stability (in words)", "setting": "Plasma stability assay", "value": "degraded rapidly in plasma"},
      {"measurement": "half-life", "setting": "Plasma stability assay", "value": "< 15", "unit": "min"},
      {"measurement": "dose at which bone and cartilage toxicity was observed", "setting": "rats [7]", "value": "exceeding 500 mg/kg/day"},
      {"measurement": "microsomal metabolic stability (Clint; in vitro)", "setting": "[8]", "value": "40.6 ^b μL/min/mg protein"},
      {"measurement": "microsomal CLint", "setting": "[8]", "value": "~40", "unit": "µL/min/mg"},
      {"measurement": "plasma protein binding (%)", "setting": "[9]", "value": "38.08 ^b %"},
      {"measurement": "fraction unbound at 2 h", "setting": "[9]", "value": "~0.62"},
      {"measurement": "solubility", "setting": "[10]", "value": "41[21] mg/mL"}
    ]},
    {"smiles": "O=c1nc(NO)ccn1[C@@H]1O[C@H](CO)[C@@H](O)[C@H]1O", "note": "[NHC, β-D-N4-hydroxycytidine]", "values": [
      {"measurement": "pKa", "setting": "[5]; model input, source not given", "value": 12.30},
      {"measurement": "plasma stability (in words)", "setting": "Plasma stability assay", "value": "stable in plasma"},
      {"measurement": "half-life", "setting": "Plasma stability assay", "value": "> 240", "unit": "min"},
      {"measurement": "EC50", "setting": "SARS-CoV-2 delta", "value": 890, "unit": "nM"},
      {"measurement": "microsomal CLint", "setting": "[8]", "value": "~11.6", "unit": "µL/min/mg"},
      {"measurement": "EC50", "setting": "SARS-CoV-2 wildtype", "value": 300, "unit": "nM"},
      {"measurement": "plasma protein binding (%)", "setting": "[9]", "value": "38.84 ^b %"},
      {"measurement": "fraction unbound at 2 h", "setting": "[9]", "value": "~0.64"},
      {"measurement": "EC50", "setting": "SARS-CoV-2 alpha", "value": 530, "unit": "nM"},
      {"measurement": "EC50", "setting": "[11]", "value": 670, "unit": "nM"},
      {"measurement": "logP", "setting": "[12]", "value": 0.1},
      {"measurement": "solubility", "setting": "[10]", "value": "21[21] mg/mL"},
      {"measurement": "EC50", "setting": "[13]", "value": 280, "unit": "nM"},
      {"measurement": "EC50", "setting": "SARS-CoV-2 beta", "value": 480, "unit": "nM"}
    ]}
  ]
}
